Source: US20250320213A1, “Nitrogen-Containing Heterocyclic Compounds” (Pfizer Inc., priority 2024, published 2025)

Columns and labels:
[1] = target: T1, STAT6 (Homo sapiens, UniProt P42226); experiment: STAT6 Reporter Luciferase Assay (IL-13 stimulated HaCaT keratinocyte NanoLuc reporter cells); format: cell-based; conditions: IL-13 stimulated HaCaT STAT6 NanoLuc reporter cells; read-out: Reporter EC50
T1 construct: stably transfected HaCaT keratinocyte cell line, which expresses NanoLuc luciferase reporter gene under the transcriptional control of the STAT6 responsive promoter; endogenous in cells; host or cells: HaCaT keratinocyte reporter cell line (stably transfected with a NanoLuc reporter)
T1 sequence (P42226 1-847): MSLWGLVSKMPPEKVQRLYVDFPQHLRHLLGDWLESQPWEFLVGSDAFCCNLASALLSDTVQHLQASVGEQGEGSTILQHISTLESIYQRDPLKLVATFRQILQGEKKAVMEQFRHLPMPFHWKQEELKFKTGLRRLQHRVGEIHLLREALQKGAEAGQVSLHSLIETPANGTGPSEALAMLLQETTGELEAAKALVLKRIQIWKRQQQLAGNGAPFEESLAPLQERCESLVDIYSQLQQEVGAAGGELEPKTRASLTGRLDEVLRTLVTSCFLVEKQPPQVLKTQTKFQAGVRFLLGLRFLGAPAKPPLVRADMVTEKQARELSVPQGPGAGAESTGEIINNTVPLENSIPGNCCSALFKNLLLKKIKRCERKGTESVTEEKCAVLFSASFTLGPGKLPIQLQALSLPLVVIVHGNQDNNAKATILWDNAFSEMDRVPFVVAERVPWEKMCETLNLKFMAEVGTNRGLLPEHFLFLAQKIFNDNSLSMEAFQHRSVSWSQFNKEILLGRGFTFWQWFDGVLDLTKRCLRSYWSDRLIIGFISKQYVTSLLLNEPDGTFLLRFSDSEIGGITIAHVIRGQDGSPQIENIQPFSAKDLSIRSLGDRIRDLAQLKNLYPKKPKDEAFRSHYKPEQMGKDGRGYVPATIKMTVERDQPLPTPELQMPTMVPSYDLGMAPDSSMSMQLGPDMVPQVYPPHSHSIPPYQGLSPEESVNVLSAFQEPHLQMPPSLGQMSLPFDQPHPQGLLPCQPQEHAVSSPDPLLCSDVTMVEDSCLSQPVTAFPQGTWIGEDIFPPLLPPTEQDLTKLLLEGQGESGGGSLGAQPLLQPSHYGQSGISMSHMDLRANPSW
Summary of the method: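 IL-13 (0.12 nM, 4 h) stimulated STAT6 reporter activity in HaCaT cells after a 2 h compound pre-incubation; NanoLuc signal was measured.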

[2] = test system: CCL17 secretion in peripheral human whole blood; experiment: Human Whole Blood (HWB) CCL17 TR-FRET Assay (IL-13 stimulated CCL17 secretion); format: cell-based; conditions: human whole blood
Summary of the method: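 Heparin-anticoagulated human blood; cpd 11-pt 3-fold dilution, duplicate, 2 h 37 °C preinc; IL-13 10 ng/mL final, 48 h 37 °C; spin, serum CCL17 by TR-FRET ELISA, 16 h RT, 665/615 ratio; IC50.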

[3] = Homo sapiens, 48 h, IL-13 stimulated
[4] = Homo sapiens, 48 h, 10 ng/mL IL13, 48 hours

Row | SMILES | EC50 [1] [nM] | IC50 [2, 3] [nM] | IC50 [2, 4] [nM] | IC50 ([2]; IL-13 stimulated, 48 hours) [nM]
1 | CC(C)n1nc(C(=O)NCc2ccc(NC(=O)N(C)C)cc2)c2c1CCN(c1ccc(C3CCCCO3)cn1)C2 (racemic) [Example 339, rac-(R)-N-(4-(3,3-dimethylureido)benzyl)-1-isopropyl-5-(5-(tetrahydro-2H-pyran-2-yl)pyridin-2-yl)-4,5,6,7-tetrahydro-1H-pyrazolo[4,3-c]pyridine-3-carboxamide] | 6550 | > 23100 |  | 
2 | CC(C)n1nc(C(=O)NCc2ccc(NC(=O)N(C)C)cc2)c2c1CCN(c1ccc(C3CCOC3)cn1)C2 (racemic) [Example 345, rac-(R)-N-(4-(3,3-dimethylureido)benzyl)-1-isopropyl-5-(5-(tetrahydrofuran-3-yl)pyridin-2-yl)-4,5,6,7-tetrahydro-1H-pyrazolo[4,3-c]pyridine-3-carboxamide] | > 2630 | > 30000 |  | 
3 | CC(CO)n1nc(C(=O)NCc2ccc(NC(=O)N(C)C)cc2)c2c1CCN(c1ccc(C(=O)N(C)C)cn1)C2 (racemic) [Example 351, rac-(R)-5-(5-(dimethylcarbamoyl)pyridin-2-yl)-N-(4-(3,3-dimethylureido)benzyl)-1-(1-hydroxypropan-2-yl)-4,5,6,7-tetrahydro-1H-pyrazolo[4,3-c]pyridine-3-carboxamide] | 73 | 129 |  | 
4 | CC(CC#N)n1nc(C(=O)NCc2ccc(NC(=O)N(C)C)cc2)c2c1CCN(c1ccc(C(=O)N(C)C)cn1)C2 (racemic) [Example 358, rac-(R)-1-(1-cyanopropan-2-yl)-5-(5-(dimethylcarbamoyl)pyridin-2-yl)-N-(4-(3,3-dimethylureido)benzyl)-4,5,6,7-tetrahydro-1H-pyrazolo[4,3-c]pyridine-3-carboxamide] | 51 | 112 |  | 
5 | CCc1nc(C(=O)NCc2ccc(NC(=O)N(C)C)cc2)c2n1C(C)CN(c1ccc(C(=O)N(C)C)cc1)C2 (racemic) [Example 399, rac-(R)-7-(4-(dimethylcarbamoyl)phenyl)-N-(4-(3,3-dimethylureido)benzyl)-3-ethyl-5-methyl-5,6,7,8-tetrahydroimidazo[1,5-a]lpyrazine-1-carboxamide] | 2 | 9 |  | 
6 | CCn1nc(C(=O)NCc2ccc(C(=O)NC)cc2)c2c1C(C(F)(F)F)CN(c1ccc(C(=O)N(C)C)cn1)C2 (racemic) [Example 463, rac-(R)-5-(5-(dimethylcarbamoyl)pyridin-2-yl)-1-ethyl-N-(4-(methylcarbamoyl)benzyl)-7-(trifluoromethyl)-4,5,6,7-tetrahydro-1H-pyrazolo[4,3-c]pyridine-3-carboxamide] | 2.7 | 23 |  | 
7 | CC(C)n1nc(C(=O)NCc2ccc(NC(=O)N(C)C)cc2)c2c1CCN(c1ccc(C3CCNC3=O)cn1)C2 (racemic) [Example 469, rac-(R)—N-(4-(3,3-Dimethylureido)benzyl)-1-isopropyl-5-(5-(2-oxopyrrolidin-3-yl)pyridin-2-yl)-4,5,6,7-tetrahydro-1H-pyrazolo[4,3-c]pyridine-3-carboxamide] | 5110 |  |  | > 4160
8 | CC(C)n1nc(C(=O)NCc2ccc(NC(=O)N(C)C)cc2)c2c1C(O)CN(c1ccc(C(=O)N(C)C)cn1)C2 (racemic) [Example 472, rac-(R)-5-(5-(dimethylcarbamoyl)pyridin-2-yl)-N-(4-(3,3-dimethylureido)benzyl)-7-hydroxy-1-isopropyl-4,5,6,7-tetrahydro-1H-pyrazolo[4,3-c]pyridine-3-carboxamide] | 41 | 120 |  | 
9 | CC(C)n1nc(C(=O)NCc2ccc(NC(=O)N(C)C)cc2)c2c1CCN(c1ccc(C3CCN(C)C3=O)cn1)C2 (racemic) [Example 505, rac-(R)-N-(4-(3,3-dimethylureido)benzyl)-1-isopropyl-5-(5-(1-methyl-2-oxopyrrolidin-3-yl)pyridin-2-yl)-4,5,6,7-tetrahydro-1H-pyrazolo[4,3-c]pyridine-3-carboxamide] | 7900 | > 30000 |  | 

These reach a lower EC50 [1]. Values come first.

Row | EC50 [1] [nM] | IC50 [2, 3] [nM] | IC50 [2, 4] [nM] | SMILES | IC50 ([2]; IL-13 stimulated, 48 hours) [nM]
10 | 0.3 | 2 |  | CC(C)n1nc(C(=O)NCc2ccc(NC(=O)N(C)C)cc2)c2c1C(C(F)(F)F)CN(c1ncc(C(=O)N(C)C)cn1)C2 (racemic) [Example 459, rac-(R)-5-(5-(dimethylcarbamoyl)pyrimidin-2-yl)-N-(4-(3,3-dimethylureido)benzyl)-1-isopropyl-7-(trifluoromethyl)-4,5,6,7-tetrahydro-1H-pyrazolo[4,3-c]pyridine-3-carboxamide] | 
11 | 0.3 | 7 |  | CCn1nc(C(=O)NCc2ccc(NC(=O)N(C)C)cc2)c2c1C(C(F)(F)F)CN(c1ncc(C(=O)N(C)C)cn1)C2 (racemic) [Example 460, rac-(R)-5-(5-(dimethylcarbamoyl)pyrimidin-2-yl)-N-(4-(3,3-dimethylureido)benzyl)-1-ethyl-7-(trifluoromethyl)-4,5,6,7-tetrahydro-1H-pyrazolo[4,3-c]pyridine-3-carboxamide] | 
12 | 0.1 | 6 |  | CC1c2c(C(=O)NCc3ccc(NC(=O)N(C)C)cc3)nn(C(C)C)c2[C@@H](C)CN1c1ccc(C(=O)N(C)C)cn1 (mixture of isomers) [Example 524, (4RS,7S)-5-(5-(Dimethylcarbamoyl)pyridin-2-yl)-N-(4-(3,3-dimethylureido)benzyl)-1-isopropyl-4,7-dimethyl-4,5,6,7-tetrahydro-1H-pyrazolo[4,3-c]pyridine-3-carboxamide] | 
13 | 1 |  | 14 | CCn1nc(C(=O)NCc2ccc(NC(=O)N(C)C)cc2)c2c1C(C)CN(c1ncc(C(=O)N(C)C)cn1)C2 (racemic) [Example 531, rac-(R)-5-(5-(dimethylcarbamoyl)pyrimidin-2-yl)-N-(4-(3,3-dimethylureido)benzyl)-1-ethyl-7-methyl-4,5,6,7-tetrahydro-1H-pyrazolo[4,3-c]pyridine-3-carboxamide] | 
14 | 1 |  | 4 | CC1CN(c2ncc(C(=O)N(C)C)cn2)Cc2c(C(=O)NCc3ccc(NC(=O)N(C)C)cc3)nn(C(C)C)c21 (racemic) [Example 532, rac-(R)-5-(5-(dimethylcarbamoyl)pyrimidin-2-yl)-N-(4-(3,3-dimethylureido)benzyl)-1-isopropyl-7-methyl-4,5,6,7-tetrahydro-1H-pyrazolo[4,3-c]pyridine-3-carboxamide] | 
15 | 1 |  | 10 | CC(C)c1nc(C(=O)NCc2ccc(NC(=O)N(C)C)cc2)c2n1[C@@H](C)CN(c1ccc(C(=O)N(C)C)cc1)C2 (racemic) [Example 537, rac-(R)-7-(4-(Dimethylcarbamoyl)phenyl)-N-(4-(3,3-dimethylureido)benzyl)-3-isopropyl-5-methyl-5,6,7,8-tetrahydroimidazo[1,5-a]pyrazine-1-carboxamide] | 
16 | 0.3 |  | 5 | CC(C)n1nc(C(=O)NCc2ccc(NC(=O)N(C)C)cc2)c2c1C(C(F)(F)F)CN(c1ccc(C(=O)N(C)C)cn1)C2 (racemic) [Example 546, rac-(R)-5-(5-(Dimethylcarbamoyl)pyridin-2-yl)-N-(4-(3,3-dimethylureido)benzyl)-1-isopropyl-7-(trifluoromethyl)-4,5,6,7-tetrahydro-1H-pyrazolo[4,3-c]pyridine-3-carboxamide] | 
